Measurements from article PMC5011342, “A high throughput drug screening assay to identify compounds that promote oligodendrocyte differentiation using acutely dissociated and purified oligodendrocyte precursor cells” (BMC Research Notes, 2016).
Read-outs that look alike come from different tables or passages of the source.

Tests used:
[1] = test system: acutely dissociated and purified rat OPCs; experiment: Acute OL differentiation assay (MBP expression/cell, immunofluorescent image quantification); assay type: cell-based; conditions: sheet "All OLga data"
How it was run: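 Oligodendrocyte precursor cells were enriched from P6-P7 Sprague–Dawley rat brains by immunopanning (RAN-2 and GalC depletion, O4 selection), plated at 5000 cells/well in serum-free, mitogen-free differentiation media on PDL/laminin 96-well view plates, centrifuged at 200×g, and pre-incubated 1–2 h before test compounds were added in quadruplicate. On DIV4, cells were fixed, stained for MBP and DAPI, imaged automatically, and MBP expression per cell was quantified.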

expanded OPCs = experiment: cells; conditions: for viability at 0.1 µM / viability at 1 µM / viability at 10 µM: Rattus norvegicus, 72 h
Protocol: Having established a consistent assay for measuring OL differentiation in vitro, the next step was to utilize this assay to assess the ability of a wide array of compounds to promote OL differentiation. Prior to library screening, we first established the maximum non-toxic dose of each compound in the library. […] Therefore, we added each compound in the NIH clinical collection (NCC) library to OPCs at 10, 1, and 0.1 µM concentrations. Three days later, we assessed viability of the treated cells by measuring AlamarBlue fluorescence, a measure of cell viability (see “Methods” section). […] Appropriately, we established three sets of screening concentrations for library compounds: non-toxic compounds were tested at 10 and 2 µM, slightly toxic compounds (only toxic at 10 µM) were tested at 2 and 0.4 µM, and very toxic compounds were tested at 0.4 and 0.08 µM.
OPCs were expanded in vitro by seeding into PDL-coated tissue culture flasks at 1000–2000 cells/cm^2 in differentiation media supplemented with 10 ng/ml PDGF-AA. Proliferating OPCs were fed every 2–3 days and supplemented with 2–3× concentration of PDGF as needed to prevent OPC differentiation. After 6–7 days of proliferation, OPCs were harvested by trypsinization, plated into PDL-coated 96-well Falcon plates and centrifuged at 200×g to facilitate cell attachment, survival, and even distribution of cells. Expanded OPCs were seeded in differentiation media at 10,000 cells/well and incubated for 2 h at 37 °C, 10 % CO2 prior to addition of compounds. The NCC library was diluted and added to cells at 10, 1, and 0.1 µM; each concentration was tested in quadruplicate. As a positive control for the induction of toxicity, 5 ng/ml tunicamycin was added to 8 wells in each plate. Three days later, a 1:10 dilution of alamarBlue® (AB) was added to each well and cells were incubated 4 h at 37 °C, 10 % CO2. AB fluorescence was measured using a PerkinElmer Victor II fluorescence microplate reader (PerkinElmer, Waltham, MA) with 560 nm excitation/590 nm emission filters. For library screening, the highest concentration of each compound was adjusted to a minimally toxic concentration based on this toxicity data. Compounds were additionally tested at a second concentration that was 1/5th of the top concentration. The final concentration of DMSO in each well was 0.1 %.

[2] = Rattus norvegicus, test compound at 2 uM, MBP expression relative to quetiapine, NCC library screen, read-out: 2 uM (% Quet)
[3] = Rattus norvegicus, test compound at 10 uM, MBP expression relative to quetiapine, NCC library screen, read-out: 10 uM (% Quet)
[4] = alamarBlue viability of expanded OPCs, compound at 0.1 µM, relative to DMSO control
[5] = alamarBlue viability of expanded OPCs, compound at 1 µM, relative to DMSO control
[6] = alamarBlue viability of expanded OPCs, compound at 10 µM, relative to DMSO control
[7] = Rattus norvegicus, 2 uM test compound, relative to quetiapine, read-out: OL differentiation, 2 uM (% Quet)
[8] = read-out: 0.1 µM (% DMSO), alamarBlue viability of expanded OPCs, compound at 0.1 µM, sheet All Tox data
[9] = read-out: 1 µM (% DMSO), alamarBlue viability of expanded OPCs, compound at 1 µM, sheet All Tox data
[10] = read-out: 10 µM (% DMSO), alamarBlue viability of expanded OPCs, compound at 10 µM, sheet All Tox data
[11] = Rattus norvegicus, 10 uM test compound, relative to quetiapine, read-out: OL differentiation, 10 uM (% Quet)
[12] = Rattus norvegicus, test compound at 2 uM, NCC library screen, relative to quetiapine, read-out: 2 uM (% Quet)
[13] = Rattus norvegicus, test compound at 10 uM, NCC library screen, relative to quetiapine, read-out: 10 uM (% Quet)
[14] = read-out: 0.1 µM (% DMSO), alamarBlue viability, NCC library compound at 0.1 µM, sheet "All Tox data"
[15] = read-out: 1 µM (% DMSO), alamarBlue viability, NCC library compound at 1 µM, sheet "All Tox data"
[16] = read-out: 10 µM (% DMSO), alamarBlue viability, NCC library compound at 10 µM, sheet "All Tox data"

CC(=O)OCC(=O)[C@@]1(O)CC[C@H]2[C@@H]3CCC4=CC(=O)CC[C@]4(C)[C@H]3C(=O)C[C@@]21C [Cortisone acetate]
activation at 2 µM [1, 2]: 8.6% | activation at 10 µM [1, 3]: 4.1% | 0.1 µM (% DMSO) (expanded OPCs; [4]): 89.9 % DMSO | 1 µM (% DMSO) (expanded OPCs; [5]): 98.1 % DMSO | 10 µM (% DMSO) (expanded OPCs; [6]): 86.2 % DMSO

CC[C@@H](CO)NCCN[C@@H](CC)CO [Ethambutol]
activation at 2 µM [1, 2]: 2.2% | activation at 10 µM [1, 3]: -11.9% | 0.1 µM (% DMSO) (expanded OPCs; [4]): 106.3 % DMSO | 1 µM (% DMSO) (expanded OPCs; [5]): 100.0 % DMSO | 10 µM (% DMSO) (expanded OPCs; [6]): 85.9 % DMSO

O=C1[C@H](CC[C@H](O)c2ccc(F)cc2)[C@@H](c2ccc(O)cc2)N1c1ccc(F)cc1 [Ezetimibe]
activation at 0.4 µM ([1]; Rattus norvegicus, 0.4 uM test compound, relative to quetiapine, read-out: OL differentiation, 0.4 uM (% Quet)): -41.3% | activation at 2 µM [1, 7]: -114% | viability at 0.1 µM (expanded OPCs; [8]): 93.7% | viability at 1 µM (expanded OPCs; [9]): 87.4% | viability at 10 µM (expanded OPCs; [10]): 48.7%

O=c1[nH]cnc2c1ncn2[C@H]1CC[C@@H](CO)O1 [2',3'-Dideoxyinosine]
activation at 2 µM [1, 7]: 10% | activation at 10 µM [1, 11]: -0.07% | viability at 0.1 µM (expanded OPCs; [8]): 88.6% | viability at 1 µM (expanded OPCs; [9]): 88.2% | viability at 10 µM (expanded OPCs; [10]): 86.2%

COc1cc(N)c(Cl)cc1C(=O)NC1CN2CCC1CC2 (stereo not drawn) [Zacopride]
activation at 2 µM [1, 7]: 6.8% | activation at 10 µM [1, 11]: 13% | viability at 0.1 µM (expanded OPCs; [8]): 87% | viability at 1 µM (expanded OPCs; [9]): 88.6% | viability at 10 µM (expanded OPCs; [10]): 91.9%

O=C1c2cccc3c2[C@H](CCC3)CN1[C@@H]1CN2CCC1CC2 [Palonosetron]
activation at 2 µM [1, 12]: 13.3% | activation at 10 µM [1, 13]: 29.7% | viability at 0.1 µM (expanded OPCs; [14]): 93% | viability at 1 µM (expanded OPCs; [15]): 92.4% | viability at 10 µM (expanded OPCs; [16]): 72.1%

C[C@@H]1C[C@H]2[C@@H]3CCC4=CC(=O)C=C[C@]4(C)[C@@]3(F)[C@@H](O)C[C@]2(C)[C@H]1C(=O)CO [Desoximetasone]
activation at 2 µM [1, 12]: -17.9% | activation at 10 µM [1, 13]: -33% | viability at 0.1 µM (expanded OPCs; [14]): 111% | viability at 1 µM (expanded OPCs; [15]): 114% | viability at 10 µM (expanded OPCs; [16]): 111%

CC1(C)O[C@@H]2C[C@H]3[C@@H]4C[C@H](F)C5=CC(=O)C=C[C@]5(C)[C@@]4(F)[C@@H](O)C[C@]3(C)[C@]2(C(=O)CO)O1 [Fluocinolone Acetonide]
activation at 2 µM [1, 12]: 12.9% | activation at 10 µM [1, 13]: 9.2% | viability at 0.1 µM (expanded OPCs; [14]): 116% | viability at 1 µM (expanded OPCs; [15]): 118% | viability at 10 µM (expanded OPCs; [16]): 111%

COc1cc(OC)c(C(=O)CCCN2CCCC2)c(OC)c1 [Buflomedil]
activation at 2 µM [1, 7]: -16.4% | activation at 10 µM [1, 11]: 24.4% | viability at 0.1 µM (expanded OPCs; [8]): 105% | viability at 1 µM (expanded OPCs; [9]): 97.6% | viability at 10 µM (expanded OPCs; [10]): 124%

CC(C)(O)[C@@H]1[C@H]2OC(=O)[C@@H]1[C@]1(O)C[C@H]3O[C@]34C(=O)O[C@H]2[C@]14C [Picrotin]
activation at 2 µM [1, 7]: 6.5% | activation at 10 µM [1, 11]: 5.9% | viability at 0.1 µM (expanded OPCs; [8]): 84.8% | viability at 1 µM (expanded OPCs; [9]): 84.6% | viability at 10 µM (expanded OPCs; [10]): 85.6%

COc1ccc2c(c1)c(CC(=O)O)c(C)n2C(=O)c1ccc(Cl)cc1 [Indomethacin]
activation at 2 µM [1, 7]: -10.2% | activation at 10 µM [1, 11]: 2.6% | viability at 0.1 µM (expanded OPCs; [8]): 81.3% | viability at 1 µM (expanded OPCs; [9]): 85.4% | viability at 10 µM (expanded OPCs; [10]): 87.1%

CC(C)c1ccc2c(c1)c(SC(C)(C)C)c(CC(C)(C)C(=O)O)n2Cc1ccc(Cl)cc1 [MK 886]
0.4 uM (% Quet) ([1]; test compound at 0.4 uM, NCC library screen, relative to quetiapine): 51.1 % Quet | 2 uM (% Quet) ([1]; test compound at 2 uM, NCC library screen, relative to quetiapine): -93.5 % Quet | 0.1 µM (% DMSO) (expanded OPCs; alamarBlue viability, NCC library compound at 0.1 µM, sheet "All Tox data"): 97.3 % DMSO | 1 µM (% DMSO) (expanded OPCs; alamarBlue viability, NCC library compound at 1 µM, sheet "All Tox data"): 107.0 % DMSO | 10 µM (% DMSO) (expanded OPCs; alamarBlue viability, NCC library compound at 10 µM, sheet "All Tox data"): 10.8 % DMSO
